Earlier results on one molecule are cited in patent publication US20150082465A1, “System and Method for Whole-Animal High-Throughput Compound Screening” (System959, LLC, priority 2013, published 2015).

The test system of the data set is C. elegans. Conditions: by antagonizing egl-19, an L-type calcium channel.

Take `CCOC(=O)C1=C(C)NC(C)=C(C(=O)OCC)C1c1c(F)c(F)c(F)c(F)c1F` [Nemadipine]: the “growth of C. elegans” value is reported as “inhibit the growth”.
